From US20220397569A1, “ASSAY FOR RAPID EVALUATION OF CHOROIDAL MAST CELL DEGRANULATION” (THE JOHNS HOPKINS UNIVERSITY, priority 2019, published 2022)
Where a name gives a salt, the structure may show the parent alone. Read-outs that look alike come from different tables or passages of the source.

Legend:
[1] = tested on: choroidal MC degranulation; type: in vivo, rat
Description: Hydrogel preparation and injection. […] All components were then mixed together by vortex and placed on ice. The final solution was loaded into an insulin syringe with a 31-gauge needle (BD Biosciences, San Jose, Calif., USA) and then, exposed to UV light (AnalytikJena, Upland, Calif., USA) for 1.5 minutes. The release and stability of the hydrogel were evaluated in vitro in PBS, pH 7.4 at 37° C.20. The amount of 48/80 released was measured using bicinchoninic acid (BCA) assay.
Alcian blue staining. After RPE removal, eyecups were fixed in methanol-formalin-acetic acid cocktail for 30 minutes and MCs were further stained with 0.05% Alcian blue (pH 5.0) in 0.02 M sodium acetate buffer for 45 minutes. Choroids were isolated after eyecups were split at the meridian and the number of non-degranulated and degranulated MCs were counted.
RPE degeneration. After the choroid/sclera eyecup was stained with anti-RPE65 Ab, 4-5 fields from the gel and non-gel areas of each choroid were captured as optimized z-stacks at 10 or 20× magnification with Zeiss LSM710. Images were exported to ImageJ software, converted into 8-bit gray color and then, thresholded. The dark area was considered degenerating RPE. To exclude the area of RPE nucleus (unstained with anti-RPE65 Ab, therefore dark) from the total dark area, particle sizes ranging from 100-infinity (pixels^2) were analyzed so nuclei were excluded. Percentage of RPE degeneration was averaged per choroid and then, quantified.
Retinal and choroidal thickness. Eight μm cryosections through the optic nerve were stained with Picrosirius Red Stain Kit (Polysciences, Inc, Warrington, Pa., USA) for 5 minutes as recommended by the manufacturer. After rinsing in hydrochloric acid and dehydrating in ethanol, sections were cover-slipped with Permount Mounting Medium (Thermo Fisher Scientific, Waltham, Mass., USA). The sections were then imaged with a Zeiss Photomic II microscope at 10×, and adjacent overlapping images of each section were taken from Ora serrata to Ora serrata. The overlapping images were then stitched using Adobe Photoshop and a panorama image was generated. The entire retina and choroid of each panorama image was precisely hand-traced and areas of the retina and choroid, respectively, were measured using ImageJ.
(§1) Electroretinogram (ERG). After overnight dark adaptation, rats were deeply anesthetized followed by pupil dilation. The rats were placed on a heated platform and full-field scotopic ERGs were elicited by white light flashes with corneal electrodes at intensities ranging from 0.01 to 1 cd·s/m^2 using the Celeris ERG system (Diagnosys LLC, Lowell, Mass., USA). The amplitude of the a- and b-waves was measured from the a-wave trough to the b-wave peak.
Volumetric and sphericity measurement. Volumetric and sphericity measurements were performed in the rats to analyze changes in shape and size of choroidal macrophages/monocytes stained with Iba1 as previously reported.^23 Briefly, randomly chosen 4-5 fields of optimized 40× magnification z-stacks per choroid captured with Zeiss LSM710 were opened in Surpass View of Imaris software and surfaces (surface detail 1.5 μm) were created, using background subtraction (0.5 μm). Voxel number filtering was applied to remove nonspecific particles in the surfaces created. Cells touching others or ones which had only a portion of the cell body visible were omitted from the volume rendering and then, the cell volume and sphericity were quantified with Imaris software.
(§2) Drug treatments. Rats were pretreated for 1-2 days prior to 48/80 hydrogel injection with either oral treatment of ketotifen fumarate (15 mg/kg) or PBS twice daily. MC tryptase inhibitor APC 366 (5 mg/kg, CAS 258932-85-8, R&D Systems, Minneapolis, Minn.)^24 or control vehicle was administered subcutaneously once daily for 8 weeks.

[2] = mice, osteoarthritis model; cited from earlier work
choroidal MCs [3] = test: Ex vivo eyecup assay, co-incubation with 48/80 (MC degranulation, macrophage volume and sphericity); type: cell-based; conditions: S/D rat eyecups, 48/80 300 μg/mL with ketotifen fumarate 300 μg/mL, 3 hours
Description: (§3) Ex vivo assays. An ex vivo assay was developed to evaluate drugs quickly and efficiently. After enucleation, the anterior segments and retinas were excised and the eyecups were split at the meridian and divided in halves. Then, eyecups were incubated with 300 μg/mL of 48/80 with or without 300 μg/mL of ketotifen fumarate in serum free DMEM in a 48-well plate for 3 hours. To evaluate oral ketotifen fumarate potential to prevent MC degranulation, rats were treated orally twice daily with ketotifen fumarate (15 mg/kg) in PBS or with PBS as control for 4 days and 2 hours prior to enucleation on the 5th day. Eyes were enucleated and exposed in 48/80 serum free DMEM for 3 hours. After washing, RPE was removed and the eyecup fixed for histochemistry. The choroid was isolated from the sclera and MCs were stained for NSE activity and viewed on the Zeiss LSM710 for the autofluorescence of the reaction product. The numbers of non-degranulated and degranulated cells were counted in the whole choroid. […]
(§4) Volumetric and sphericity measurement. […] Cells touching others or ones which had only a portion of the cell body visible were omitted from the volume rendering and then, the cell volume and sphericity were quantified with Imaris software.

choroidal MCs [4] = test: Ex vivo eyecup assay after oral pretreatment of rats; set-up: species or system rat; conditions: oral 15 mg/kg twice daily for 4 days prior to enucleation; eyecups in 48/80 300 μg/ml 3 hours; compared to PBS
Description: as §3, §4

[5] = rats; cited from earlier work
[6] = Pharmacokinetic study of oral ketotifen fumarate in eye tissue (LC/MS-MS); type: in vivo, rat; conditions: 3 mg/kg once daily by gavage, sacrificed on the 5th day
Description: Pharmacokinetic study. Ketotifen fumarate quantification in plasma and eye tissue was conducted using high-performance liquid chromatography with tandem mass spectrometry (LC/MS-MS). Briefly, acetonitrile containing 0.5 μM losartan as internal standard was used to extract ketotifen from choroid and retina. Standards were prepared by spiking ketotifen fumarate in naive tissue from […] in a half log dilution series. Samples were weighed and placed in low retention microcentrifuge tubes with 5 μL extraction solution/mg tissue and pestle homogenized. Samples were vortexed followed by centrifugation at 16 000 g for 5 minutes at 4° C. The supernatants were transferred to a 96-well plate and 2 μL were injected for analysis. Samples were analyzed on an UltiMate 3000 UHPLC coupled to Q Exactive Focus orbitrap mass spectrometer (Thermo Fisher Scientific, Waltham, Mass., USA) using an Agilent EclipsePlus C18 RRHD (1.8 μm; 2.1. 100 mm) column. The mobile phase consisted of water+0.1% formic acid, and acetonitrile+0.1% formic acid. […] Samples were analyzed in positive ion mode via heated electrospray with capillary temperature set at 350° C. and a spray voltage of 3.5 kV. […] Data were acquired and quantified with Xcalibur software (Thermo Fisher Scientific, Waltham, Mass., USA).

[7] = Tolerability of oral ketotifen fumarate in rats (RPE, body weight, ERG); type: in vivo, rat
Description: as §1, §2

RBL-2H3 cells = test: β-hexosaminidase release assay for MC degranulation in RBL-2H3 cells; type: cell-based; conditions: Rattus norvegicus, RBL-2H3, 0.75 h; 48/80 10 μg/mL, ketotifen fumarate 10 μg/mL, 45 minutes
Description: In vitro assays. RBL-2H3 cells (CRL-2256, ATCC, Manassas, Va., USA) were used for the in vitro assay for MC degranulation. Cell degranulation was assessed by the (3-hexosaminidase release as previously described.^22 A density of 50 000 cells/well was plated overnight in a 96-well plate. Ten μg/mL of 48/80 or 10 μg/mL of ketotifen fumarate (1(2628, Millipore Sigma, St Louis, Mo., USA)+10 μg/mL of 48/80 dissolved in 100 μL serum free media (DMEM with 1.0 g/L glucose) (Thermo Fisher Scientific, Waltham, Mass.) were added to each well and incubated for 45 minutes. Then, the cells were lysed using 1% triton X-100 to determine MC β-hexosaminidase that was still cell associated. Twenty μL of the supernatant and then, the cell lysate was collected and added to 50 μL of cold 4-Nitrophenyl N-acetyl-B-d-glucosaminide (1.3 mg/mL in Citrate Buffer, pH 4.5, Millipore Sigma, St Louis, Mo., USA) to detect the amount of β-hexosaminidase released. […] The plate was read at 405 nm wavelength using a microplate reader (ELx808, BioTek, Winooski, Vt., USA). Degranulation was calculated as the percentage of β-hexosaminidase activity measured in the supernatants relative to the total amount of β-hexosaminidase activity in the cells exposed to 1% triton X-100 (100% degranulation).

[8] = APC 366 5 mg/kg subcutaneous daily, 4 weeks
[9] = oral ketotifen fumarate 15 mg/kg twice daily, 4 weeks post 48/80-hydrogel implantation

| Structure (SMILES) | RPE degeneration [1, 8] | choroidal macrophage/monocyte activation [1, 8] | retinal and choroidal thickness ([1]; APC 366 5 mg/kg subcutaneous daily, 8 weeks) | ERG amplitude, a- and b-waves ([1]; rat, in vivo, sc, 5 mg/kg) | inflammation (transcriptional expression of IL-1β, IL-6, IL-8, CC-motif ligand 2, MMP-3) [2] | MC degranulation [1, 9] | RPE degeneration [1, 9] | retina and choroidal thickness ([1]; oral ketotifen fumarate 15 mg/kg twice daily, 8 weeks post implantation) | choroidal macrophage activation (sphericity, volume of Iba1+ cells) (choroidal MCs [3]) | prevention of 48/80-induced MC degranulation (choroidal MCs [3]) | MC degranulation prevented (choroidal MCs [4]) [%] | macrophage activation (choroidal MCs [4]) | non-REM and REM sleep [5] | ketotifen fumarate in choroid [6] [nM] | ketotifen fumarate in retina [6] [nM] | RPE morphology or viability ([7]; normal S/D rats, oral 15 mg/kg twice daily for 6 wk) | ERG amplitudes after drug treatment alone ([7]; normal rats, 6 weeks of drug treatment) | adverse effects ([7]; oral administration) | growth of the animals (body weight) ([7]; oral twice daily for 6 wk after 48/80 implantations) | inhibition at 10 µg/mL (RBL-2H3 cells) [%] |
| --- | --- | --- | --- | --- | --- | --- | --- | --- | --- | --- | --- | --- | --- | --- | --- | --- | --- | --- | --- | --- |
| NC(=O)[C@@H]1CCCN1C(=O)[C@H](CCCN=C(N)N)NC(=O)c1ccc2ccccc2c1O [APC 366] | RPE degeneration was significantly inhibited | choroidal macrophage/monocyte activation was prevented | significantly less retinochoroidal thinning | reduction in ERG amplitude of both a- and b-waves was prevented | suppressed inflammation | – | – | – | – | – | – | – | – | – | – | – | – | – | – | – |
| CN1CCC(=C2c3ccccc3CC(=O)c3sccc32)CC1 [ketotifen fumarate] | – | – | – | – | – | significantly prevented | significantly prevented RPE degeneration | retinochoroidal thinning was inhibited | choroidal macrophage activation was prevented | prevented MC degranulation, equivalent to the level of untreated eyecups | 37 | significantly prevented macrophage activation | dose dependently decreased non-rapid eye movement (REM) sleep and increased REM sleep | 13 to 29 | 12 to 52 | did not affect RPE morphology or viability | normal | did not manifest any adverse effects | nor did it affect growth of the animals | 56 |
